Molecular target: MAPK14 (human) (UniProt Q16539)
Assay: Inhibition of MAPK14 Kinase Activity

MAPK14 (human), sequence (Q16539 whole entry, looked up): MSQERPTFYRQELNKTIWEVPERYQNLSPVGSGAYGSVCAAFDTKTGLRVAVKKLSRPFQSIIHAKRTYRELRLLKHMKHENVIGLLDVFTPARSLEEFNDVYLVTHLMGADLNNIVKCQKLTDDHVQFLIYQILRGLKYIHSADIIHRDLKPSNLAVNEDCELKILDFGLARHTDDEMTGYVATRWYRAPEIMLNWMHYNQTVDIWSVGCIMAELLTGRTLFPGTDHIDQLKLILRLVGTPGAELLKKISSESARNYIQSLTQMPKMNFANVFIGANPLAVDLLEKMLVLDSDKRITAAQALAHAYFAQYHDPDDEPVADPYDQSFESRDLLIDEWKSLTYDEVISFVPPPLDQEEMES

Structure (SMILES) | IC50
CC(C)NC(=O)c1csc(-c2oc(CNC(=O)c3ccc(-c4ccc(O)cc4)cc3)nc2-c2ccc(F)cc2)n1 | ≤ 1 µM
COc1ccc(C(=O)N2CCN(Cc3nc(-c4ccc(F)cc4)c(-c4nc(C(=O)NC(C)C)cs4)o3)CC2)c(OC)c1 | ≤ 1 µM
CC(C)NC(=O)n1ccc(-c2c(-c3ccc(F)cc3)noc2CN2CCOCC2)n1 | ≤ 1 µM
CC(C)NC(=O)c1csc(-c2c(-c3ccc(F)cc3)n[nH]c2C2CCN(C(=O)c3ccncc3)CC2)n1 | ≤ 1 µM
CC(C)NC(=O)c1csc(-c2oc(CNC(=O)c3cccc(Cl)c3[N+](=O)[O-])nc2-c2ccc(F)cc2)n1 | ≤ 1 µM
COc1ccc(Br)c(C(=O)NCc2nc(-c3ccc(F)cc3)c(-c3nc(C(=O)NC(C)C)cs3)o2)c1 | ≤ 1 µM
Cc1nc(-c2ccc(F)cc2)c(-c2nc(C(=O)N3CCCC3CO)cs2)s1 (stereo not given) | ≤ 1 µM
CCOC(=O)CC(=O)N1CCN(Cc2nc(-c3ccc(F)cc3)c(-c3nc(C(=O)NC(C)C)cs3)o2)CC1 | ≤ 1 µM
COc1ccc(CCNC(=O)c2csc(-c3sc(C)nc3-c3ccc(F)cc3)n2)cc1 | ≤ 1 µM
COc1ccc([N+](=O)[O-])c(C(=O)NCc2nc(-c3ccc(F)cc3)c(-c3nc(C(=O)NC(C)C)cs3)o2)c1 | ≤ 1 µM
CCN(CC)c1ccc(C(=O)NCc2nc(-c3ccc(F)cc3)c(-c3nc(C(=O)NC(C)C)cs3)o2)cc1 | ≤ 1 µM
O=C(NCCCO)c1csc(-c2c(-c3ccc(F)cc3)n[nH]c2C2CCNCC2)n1 | ≤ 1 µM
Cc1nc(-c2ccc(F)cc2)c(-c2nc(C(=O)NCC(C)c3ccccc3)cs2)s1 (stereo not given) | ≤ 1 µM
CC(C)NC(=O)c1csc(-c2c(-c3ccc(F)cc3)noc2CNC(=O)c2ccncc2Cl)n1 | ≤ 1 µM
O=C(NCc1ccncc1)c1csc(-c2c(-c3ccc(F)cc3)n[nH]c2C2CCNCC2)n1 | ≤ 1 µM
CC(C)NC(=O)c1csc(-c2oc(CNC(=O)c3c4ccccc4cc4ccccc34)nc2-c2ccc(F)cc2)n1 | ≤ 1 µM
CC(=O)c1cccc(NC(=O)c2csc(-c3sc(C)nc3-c3ccc(F)cc3)n2)c1 | ≤ 1 µM
Cc1nc(-c2ccc(F)cc2)c(-c2nc(C(=O)NCc3ccc(F)c(F)c3)cs2)s1 | ≤ 1 µM
CC(C)NC(=O)c1csc(-c2c(-c3ccc(F)cc3)noc2CN2CCCC2CO)n1 (stereo not given) | ≤ 1 µM
CC(C)NC(=O)c1csc(-c2oc(CNC(=O)c3cc(Cl)c(O)c(Cl)c3)nc2-c2ccc(F)cc2)n1 | ≤ 1 µM
Cc1nc(-c2ccc(F)cc2)c(-c2nc(C(=O)NCCc3ccccc3F)cs2)s1 | ≤ 1 µM
Cc1ccc(S(=O)(=O)NCCNC(=O)c2csc(-c3sc(C)nc3-c3ccc(F)cc3)n2)cc1 | ≤ 1 µM
CC(C)NC(=O)c1csc(-c2oc(CNCc3ccccn3)nc2-c2ccc(F)cc2)n1 | ≤ 1 µM

Structure (SMILES) | IC50
CC(C)NC(=O)c1csc(-c2oc(CNC(=O)c3cccc(O)c3O)nc2-c2ccc(F)cc2)n1 | ≤ 1 µM
Cc1nc(-c2ccc(F)cc2)c(-c2nc(C(=O)NCCCN(C)c3ccccc3)cs2)s1 | ≤ 1 µM
CC(C)NC(=O)c1csc(-c2c(-c3ccc(F)cc3)n[nH]c2C2CCN(C(=O)C3CCCO3)CC2)n1 (stereo not given) | ≤ 1 µM
CC(C)NC(=O)c1csc(-c2oc(CNC(=O)C3CCCO3)nc2-c2ccc(F)cc2)n1 (stereo not given) | ≤ 1 µM
Cc1nc(-c2ccc(F)cc2)c(-c2nc(C(=O)NCCCO)cs2)s1 | ≤ 1 µM
CCOC(=O)CC(C)NC(=O)c1csc(-c2sc(C)nc2-c2ccc(F)cc2)n1 (stereo not given) | ≤ 1 µM
CC(C)NC(=O)c1csc(-c2oc(CNC(=O)c3ccc(F)cc3Cl)nc2-c2ccc(F)cc2)n1 | ≤ 1 µM
CC(C)NC(=O)c1csc(-c2c(-c3ccc(F)cc3)noc2CN(C)C)n1 | ≤ 1 µM
COc1ccc(O)c(C(=O)N2CCN(Cc3nc(-c4ccc(F)cc4)c(-c4nc(C(=O)NC(C)C)cs4)o3)CC2)c1 | ≤ 1 µM
CC(C)NC(=O)c1csc(-c2oc(CN3CCN(C(=O)c4ccc(Oc5ccccc5)cc4)CC3)nc2-c2ccc(F)cc2)n1 | ≤ 1 µM
CC(C)NC(=O)c1csc(-c2oc(CNC(=O)CCc3ccccc3O)nc2-c2ccc(F)cc2)n1 | ≤ 1 µM
CC(C)NC(=O)c1csc(-c2c(-c3ccc(F)cc3)noc2CNC(=O)Cc2cccc(O)c2)n1 | ≤ 1 µM
CC(C)NC(=O)c1csc(-c2oc(CN3CCN(C(=O)c4ccc(N(C)C=O)cc4)CC3)nc2-c2ccc(F)cc2)n1 | ≤ 1 µM
CC(C)NC(=O)c1csc(-c2oc(CN3CCNCC3)nc2-c2ccc(F)cc2)n1 | ≤ 1 µM
COc1cccc(CNC(=O)c2csc(-c3sc(C)nc3-c3ccc(F)cc3)n2)c1 | ≤ 1 µM
CC(C)NC(=O)c1csc(-c2oc(CNC(=O)CCc3cccc(C(F)(F)F)c3)nc2-c2ccc(F)cc2)n1 | ≤ 1 µM
C#CCNC(=O)c1csc(-c2c(-c3ccc(F)cc3)n[nH]c2C2CCN(C(=O)CO)CC2)n1 | ≤ 1 µM
CC(=O)Oc1ccccc1C(=O)NCc1onc(-c2ccc(F)cc2)c1-c1nc(C(=O)NC(C)C)cs1 | ≤ 1 µM
COc1ccccc1NC(=O)c1csc(-c2sc(C)nc2-c2ccc(F)cc2)n1 | ≤ 1 µM
CC(C)NC(=O)c1csc(-c2oc(CNC(=O)c3cscn3)nc2-c2ccc(F)cc2)n1 | ≤ 1 µM
Cc1nc(-c2ccc(F)cc2)c(-c2nc(C(=O)NCC3(O)CCCCC3)cs2)s1 | ≤ 1 µM
Cc1onc(-c2ccc(Cl)cc2)c1-c1ccn(C(=O)NC2CCCCC2)n1 | ≤ 1 µM

— the Kinase Knowledgebase extract (Sharma et al. 2016)
